Results taken from patent publication US20130096103A1, “IMIDAZOQUINOLINE COMPOUNDS” (NOVARTIS VACCINES & DIAGNOSTICS, INC., priority 2004, published 2013).

Legend:
[1] = system: BALB/c mice; test: In vivo adjuvant study: Env-specific serum IgG1 ELISA; conditions: vaccinated day 0 and 28, sera 6-7 d after 2nd vaccination
Excerpt: (§1) In phosphate-buffered saline (PBS), 25 micrograms gp120dV2EnvSF162 antigen (recombinant gp120 protein derived from sequence of HIV-1 strain SF162—the V2 domain was deleted; Pharm Res. 2004 Dec. 21(12):2148-52) as mixed with 50 microliters of MF59 adjuvant, followed the by the addition of 0, 1, 5, or 25 micrograms of a small molecule immune potentiator (SMIP) and adjusted to 100 microliters with PBS. 50 microliters of the solution was subsequently injected into both the left and right tibialis anterior muscles of female BALB/c mice (Day 0), for a total volume of 100 microliters per mouse. Four weeks later (Day 28), 50 microliters of the solution was again injected into both the left and right tibialis anterior muscles of the mouse. Seven days after the second vaccination ([…]), serum samples were collected, and a day later (day 35) spleens were removed. Serum samples were assayed by Env-specific serum IgG2a ELISA and Env-specific serum IgG1 ELISA. Spleen samples were assayed by Env-specific, cytokine-producing splenic CD4 and CD8 T cells.
(§2) BALB/c mise were immunized 2× with HIV gp120 formulated in MF59 +/− the indicated SMIPs (25 μg/ml). CpG 1826 (25 μg/ml) was used as a positive control. […] post-second serum was collected from the immunized mice and the anti-gp120-specific serum IgG2a (FIG. 4A) and IgG1 (FIG. 4B) geometric mean titers (GMT) were determined. In addition, spleens were also harvested from the immunized mice and ex vivo anti-gp120-specific T cell responses (FIG. 4C) were determined by intracellular cytokine staining for IL-2 and IFN-g. Results are percentage of antigen-specific T cells expressing the indicated cytokine.

[2] = system: BALB/c mice; test: In vivo adjuvant study: Env-specific cytokine-producing splenic CD4 and CD8 T cells; conditions: spleens 6-7 d after 2nd vaccination
Excerpt: as §1, §2

[3] = system: BALB/c mice; test: In vivo adjuvant study: Env-specific serum IgG2a ELISA; conditions: vaccinated day 0 and 28, sera 6-7 d after 2nd vaccination
Excerpt: as §1, §2

[4] = Pope et al. Cellular Immunology 162: 333-339 (1995); cited from earlier work
[5] = 1 μg added to gp120dV2/MF59 base vaccine
[6] = 5 μg added to gp120dV2/MF59 base vaccine
[7] = 25 μg added to gp120dV2/MF59 base vaccine

Compound | Env-spec IgG1 titer, Geo mean [1, 5] | Env-spec IgG1 titer, Geo mean [1, 6] | Env-spec IgG1 titer, Geo mean [1, 7] | Env-spec CD4 (%) IFN-γ+ [2, 5] | Env-spec CD4 (%) IL-2+ [2, 5] | Env-spec CD8 (%) IFN-γ+ [2, 5] | Env-spec CD8 (%) IL2+ [2, 5] | Env-spec CD4 (%) IFN-γ+ [2, 6] | Env-spec CD4 (%) IL-2+ [2, 6] | Env-spec CD8 (%) IFN-γ+ [2, 6] | Env-spec CD8 (%) IL2+ [2, 6] | Env-spec CD4 (%) IFN-γ+ [2, 7] | Env-spec CD4 (%) IL-2+ [2, 7] | Env-spec CD8 (%) IFN-γ+ [2, 7] | Env-spec CD8 (%) IL2+ [2, 7] | Env-spec IgG2a titer, Geo mean [3, 5] | Env-spec IgG2a titer, Geo mean [3, 6] | Env-spec IgG2a titer, Geo mean [3, 7] | concentration causing useful production of TNF-α [4]
CCCSc1nc2c(N)nc3ccccc3c2n1CC(C)C [Example 11, 1-(2-methylpropyl)-2-(propylthio)-1H-imidazo[4,5-c]quinolin-4-amine] | 35177 | 33477 | 34199 | 0.04% | 0.17% | 0.08% | 0.17% | 0.04% | 0.42% | 0.19% | 0.22% | 0.04% | 0.42% | 0.18% | 0.22% | 512 | 2922 | 6507 | 
CCCN(C)c1nc2c(N)nc3ccccc3c2n1CC(C)(C)O [Example 19, 1-{4-amino-2-[methyl(propyl)amino]-1H-imidazo[4,5-c]quinolin-1-yl}-2-methylpropan-2-ol] | 30536 | 29502 | 38255 | 0.07% | 0.14% | 0.21% | 0.14% | 0.04% | 0.40% | 0.35% | 0.37% | 0.29% | 0.76% | 0.07% | 0.10% | 1215 | 10104 | 18733 | 
C=CCn1c(=O)n([C@@H]2O[C@H](CO)[C@@H](O)[C@H]2O)c2nc(N)[nH]c(=O)c21 [Loxoribine] |  |  |  |  |  |  |  |  |  |  |  |  |  |  |  |  |  |  | 300 µM
ODN-1826 [reference compound] |  |  | 30188 |  |  |  |  |  |  |  |  | 0.32% | 0.47% | 0.15% | 0.12% |  |  | 201306 | 
